Assay results from PubChem BioAssay AID179 (DTP/NCI, 2004).
“And” between values parts separate entries of the source, which are not always exact repeats. Equal values may be shown once. The source made the active and inactive calls.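 How the source made its calls: active means compounds giving half or more protection of infected cells from virus-caused growth loss, again on retest; inactive means the rest.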 Where a SMILES comes first, the peptide text is derived from it. The star is where a group is joined. Boc = CC(C)(C)OC(=O)*; OBn = c1ccc(CO*)cc1

Tested on: CEM cells HIV-1 protection, formazan growth assay
Assay: NCI AIDS Antiviral Assay
Details: for IC50: measured here: growth of uninfected CEM cells
Procedure, shortened: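 Five concentrations of each compound were applied to infected and uninfected human CEM cells. Protection from HIV-1 was judged from growth measured with a soluble formazan assay.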

Structure (SMILES)	EC50	IC50	outcome
C(=C\c1cc(-c2ccc3ccccc3n2)nc2ccc3ccccc3c12)/c1ccc2ccccc2n1	> 200 µM	> 200 µM	–
CCOC(=O)c1[nH]n(-c2ccccc2)c(=O)c1/C=N/C(=S)Nc1ccccc1	> 200 µM	51.3 µM	–
COc1cc(C[C@H]2C(=O)OC[C@@H]2Cc2ccc(OC)c(OC)c2)cc(OC)c1	> 200 µM	91.2 µM	–
CC(C)CC(NC(=O)OC(C)(C)C)C(=O)NC(CC(=O)OCc1ccccc1)C(=O)OCc1ccccc1 (stereo not drawn) (Boc-Leu-Asp(OBn)-OBn; configuration not given here)	> 200 µM	33.1 µM	–
COc1ccc2c(c1)CCc1cnoc1-2	> 178 µM	110 µM	–
COC(=O)CC1CCC(c2ccn(S(=O)(=O)c3ccccc3)c2)=NO1 (stereo unspecified)	> 200 µM	> 200 µM	–
CNC(=O)NCCc1c[nH]c2ccccc12	> 200 µM	> 200 µM	–
Nc1nc(-c2ccccc2)nc(N)c1N=O	> 200 µM	2.57 µM	–
CCCN1C(=O)CN(S(=O)(=O)c2ccc(Cl)cc2)C1=O	> 200 µM	> 200 µM	–
Clc1ccc(CSc2ccc3nncc(SCc4ccc(Cl)cc4)c3c2)cc1	> 60.3 µM	> 60.3 µM	–
CC1(C)COC(c2ccccc2-c2ccccc2)=N1	> 200 µM	132 µM	–
O=C1OI(C#Cc2ccccc2)c2ccccc21	> 20 µM	3.31 µM	–
CO/N=C1/c2sccc2[C@H](NC(=O)C(Cc2ccccc2)NC(=O)OC(C)(C)C)[C@@H]1O (stereo partly specified)	> 200 µM	> 200 µM	–
COc1nc(N)c(NC2OCC(O)C(O)C2O)c(=O)n1C (stereo unspecified)	195 µM and 182 µM and > 200 µM	603 µM and 224 µM and > 200 µM	–
COc1ccccc1/C=C1\S/C(=N/Nc2nc(C)c(C(C)=O)s2)NC1=O	> 200 µM	112 µM	–
CCCCNC(=O)/N=C/c1c(O)c2ccccc2oc1=O	> 91.2 µM	58.9 µM	–
COC(=O)c1c[nH]cc1CCCCc1c[nH]cc1C(=O)OC	–	–	inactive
COc1c(OC)c(OC)c2c(=O)cc(-c3ccc(OC(C)=O)cc3)oc2c1OC	> 200 µM	19.5 µM	–
Cc1ccc2ccc(-c3cc4ccccc4s3)nc2c1	–	–	inactive
COc1ccc2c(c1)[C@@H](NC(C)=O)CCc1cc(OC)c(OC)c(OC)c1-2	> 0.0708 µM	0.011 µM	–
CCOC(=O)NC(C(=O)OCC)C(F)(F)F (stereo unspecified)	> 200 µM	102 µM	–
C/C(=C1/N=C(c2cc([N+](=O)[O-])ccc2Cl)N(c2cccc(C)c2)C1=O)c1cc2ccccc2oc1=O	> 7.59 µM	> 7.59 µM	–
N=C1C=C/[N+](=C\C=CCO)C([O-])=N1	–	–	active

Structure (SMILES)	EC50	IC50	outcome
Nc1ccc(Oc2ccc(S(=O)(=O)c3ccc(Oc4ccc(N)cc4N)cc3)cc2)c(N)c1	> 200 µM	120 µM	–
CN(C)CC1(C)Cc2cc(Cl)sc2C1=O (stereo unspecified)	> 200 µM	> 200 µM	–
CCCCCCCCCCCC1=C(NCCN)C(=O)C=C(NCCN)C1=O	> 2 µM	> 2 µM	–
CNC(=O)NCCN1CC2CCC(CC2)C1	> 200 µM	> 200 µM	–
O=C(NC1CCCCC1)N1CCNC1=S	> 200 µM	> 200 µM	–
C[C@@H]1OCN(C(=O)c2ccccc2SSc2ccccc2C(=O)N2CO[C@H](C)[C@H]2C(=O)O)[C@H]1C(=O)O	> 200 µM	> 200 µM	–
NC1=C(c2nc(-c3ccccc3)cs2)C(c2ccco2)c2c(c3ccccc3oc2=O)O1 (stereo unspecified)	> 200 µM	93.3 µM	–
CC(=O)OCC(OC(C)=O)C(OC(C)=O)C(OC(C)=O)C(=O)CNn1c(-c2ccccc2Cl)nc2ccccc2c1=O (stereo unspecified)	–	–	inactive
OCC1C=CC(n2cnc3c(Cl)ncnc32)CC1 (stereo unspecified)	> 200 µM	34.7 µM	–
O=C(NCCCNCCCNC(=O)c1cc(-c2ccccc2)nc2ccccc12)c1cc(-c2ccccc2)nc2ccccc12	> 200 µM	2.82 µM	–
C[n+]1cn(C2=C([O-])c3ccccc3C(=O)/C2=N\S(=O)(=O)c2ccccc2)c2ccccc21	> 151 µM	126 µM	–
CCOC1(c2ccccc2)OC(=O)c2ccccc21 (stereo unspecified)	–	–	inactive
Nc1nc2c(ncn2C2C=CC(COS(N)(=O)=O)C2)c(=O)[nH]1 (stereo unspecified)	> 200 µM	> 200 µM	–
O=c1[nH][nH]c(=O)c2c1ccc1oc3ccccc3c12	> 200 µM	> 200 µM	–
Cc1ccc2c(c1C)CC1(Cc3c(ccc4c3CCC4)C1=O)C2=O (stereo unspecified)	> 100 µM	> 100 µM	–
O=C(c1ccc(Cl)cc1)c1ccc(OCCCOc2ccc(C(=O)c3ccc(Cl)cc3)cc2)cc1	> 20 µM	> 20 µM	–
O=c1cc(NNc2cccc(Cl)c2)[nH]c(=O)[nH]1	> 200 µM	1.05 µM	–
C=C1C(=O)OC2/C=C(\COC(C)=O)CCC(OC(C)=O)C3=CC(OC3=O)C12 (stereo unspecified)	> 36.3 µM	7.24 µM	–
N#Cc1c(N=C2CCCCC2)c(C(=O)Nc2ccccc2)n2c1CCCC2	> 50.1 µM	> 50.1 µM	–
NC(=S)NNC(=O)CCC(=O)Nc1ccccc1Cl	–	–	inactive
N=c1sc(N2CCOCC2)nn1CC(=O)c1ccccc1	> 200 µM	129 µM	–
C[C@]12Cc3cn[nH]c3C(=O)C1CC[C@@H]1C2CC[C@@]2(C)C1CC[C@@H]2O (stereo partly specified)	20 µM	21.9 µM	–
Cc1cc2c(cc1C)[n+](=O)c(C(=O)C/C(=N/NC(=O)CC#N)C(=O)Nc1ccccc1C(F)(F)F)c(C)n2[O-]	> 13.2 µM	> 13.2 µM	–

Structure (SMILES)	EC50	IC50	outcome
O=[N+]([O-])c1cnc(/C=[N+](\[O-])CCO)n1CCO	–	–	inactive
CC1(C)N([O-])[N+](=O)C1(C)C	> 200 µM	> 200 µM	–
c1ccc(-c2sc(-c3ccccc3)c3c2C2CCC3C2)cc1	> 200 µM	36.3 µM	–
CC(=O)NNC(=S)/N=C\c1c(O)c2ccccc2oc1=O	–	–	inactive
C[N+]1(C)CN(c2ccccc2)C2(CCN(CCCC(=O)c3cccs3)CC2)C1=O	> 200 µM	55 µM	–
COc1cc(/C=C/c2ccnc3ccccc23)ccc1N(C)C	> 200 µM	2.19 µM	–
Clc1ccc(CNCCCNCc2ccc(Cl)c(Cl)c2)cc1Cl	> 200 µM	15.8 µM	–
CC(C)c1ccc(/C=C2\CSCC3=C2N=C2SCC(=O)N2C3c2ccc(C(C)C)cc2)cc1 (stereo unspecified)	> 200 µM	107 µM	–
Nn1c(-c2ccccc2Cl)nc2ccccc2c1=O	–	–	inactive
CCOC(=O)CCCc1cc[c]([Sb](=[O])([OH])[OH])cc1	> 200 µM	72.4 µM	–
CN1CCN(C(=S)N(C(=O)c2ccco2)c2ccccc2)CC1	> 759 µM	> 759 µM	–
CCOC(=O)c1[nH]cc(C)c1-c1cccn1-c1ccc(Cl)cc1[N+](=O)[O-]	> 200 µM	30.9 µM	–
CC(=O)OCC1=C(C(=O)O)N2C(=O)C(NC(=O)CSc3ccncc3)C2SC1 (stereo unspecified)	61.7 µM	631 µM	–
Cc1ccc2[nH]c3[nH]c(=O)[nH]c(=O)c3c2c1	> 200 µM	> 200 µM	–
CCCCCCCCCCCCCCOP(=O)(O)OCCC=C(c1cc(Cl)c(O)c(C(=O)O)c1)c1cc(Cl)c(O)c(C(=O)O)c1	> 200 µM	> 100 µM	–
O=S(Nc1ccccc1)c1ccc(-c2ccccc2)cc1 (stereo unspecified)	> 200 µM	> 200 µM	–
O=C(O)c1ccccc1SCc1cc(O)ccc1O	> 200 µM	30.9 µM	–
COC(=O)[C@@H]1C[C@]2(Br)c3ccccc3N(S(=O)(=O)c3ccccc3)[C@@H]2N1C(=O)OC	> 200 µM	138 µM	–
O=C(O)C1(Cc2ccc3c(c2)CCC3)Cc2cc3c(cc2C1)CCC3	> 200 µM	35.5 µM	–
O=C(Nc1ccccc1)c1cc(S(=O)(=O)N2CCNNC2=O)c(S)cc1Cl	10.2 µM	166 µM	–
COc1cc2c(c(C)c1O)[C@H]1Cc3ccccc3[C@H]1O2	> 7.41 µM	> 7.41 µM	–
Cc1c2ccnc(C#N)c2c(C)c2c1[nH]c1ccccc12	–	–	inactive
CCN(CC)C(=O)CCCCCCCCC1CO1 (stereo unspecified)	> 200 µM	115 µM	–

Structure (SMILES)	EC50	IC50	outcome
Cc1ccc(S(=O)(=O)Sc2nnnn2C)cc1	> 251 µM	53.7 µM	–
CCOC(=O)c1ccc(N2C(=O)c3cccc4cccc(c34)C2=O)cc1	> 100 µM	> 100 µM	–
Cc1ccc(SC2C(=O)C3CC(OCc4ccccc4)C2(C)C3(C)C)cc1 (stereo unspecified)	> 200 µM	> 200 µM	–
CCC(C(=O)NNC(=O)c1cc(OC)c(OC)c(OC)c1)c1ccccc1 (stereo unspecified)	> 200 µM	195 µM	–
COc1ccc(OC)c(NC(=S)N/N=C/c2cccc3ccccc23)c1	> 200 µM	1.05 µM	–
CCN(CC)CCNc1nc(N)c(C#N)c(C#N)c1C#N	> 200 µM	174 µM	–
COC(=O)C1=C(C(=O)OC)N(c2ccc(OC)cc2[N+](=O)[O-])C(c2ccc(C)cc2)=CC1c1ccc(OC)cc1OC (stereo unspecified)	> 100 µM	3.02 µM	–
CC(CO)S(=O)(=O)O (stereo unspecified)	> 200 µM	> 200 µM	–
O=C1c2ccccc2C(=O)C1(O)c1c[nH]c2ccccc12	> 912 µM	64.6 µM	–
CCNC(=S)Nc1c(C#N)c2n(c1C(=O)OCC)CCCCC2	> 200 µM	> 200 µM	–
CCOC(=O)Cn1c(=O)[nH]c(=O)c2[nH]cnc21	> 1050 µM	> 1050 µM	–
Nc1cc(C(=O)O)ccc1SSc1ccc(C(=O)O)cc1N	93.3 µM	> 200 µM	–
C[CH2][Ge]1([CH2]C)[CH2]CC2(CCN(CCCN(C)C)C2)C[CH2]1	> 251 µM	1.38 µM	–
CCCCCCc1cc(C(=O)Nc2cccc(C(F)(F)F)c2)nc(N)n1	–	–	inactive
CCN(CC)CC1CCCCCCCCCCC1=O (stereo unspecified)	–	–	inactive
CC1OC(Oc2c(-c3ccc(O)c(O)c3)oc3cc(O)cc(O)c3c2=O)C(O)C(O)C1O (stereo unspecified)	–	–	inactive
O=C1C(c2ccc([N+](=O)[O-])cc2)=[N+]([O-])c2ccccc21	–	–	inactive
Fc1ccc(F)c(C=NC23CC4CC(CC(C4)C2)C3)c1	> 200 µM	> 200 µM	–
Cc1ccccc1NC(=S)N=Nc1c(O)[nH]c2ccccc12	> 200 µM	> 200 µM	–
COc1cccc(C[C@H]2C(=O)OC[C@@H]2Cc2ccc(OC)c(OC)c2)c1	> 200 µM	57.5 µM	–
ClCc1c(-c2ccccc2)nn(-c2ccccc2)c1CCl	> 200 µM	6.17 µM	–
